One assay deals with DLD-1 cells. Nature of the assay: Immunoblot analysis of the Apo2L/TRAIL-induced caspase cascade, DLD-1. The format is cell-based, human. Particulars: siRNA 48 h, Apo2L/TRAIL 4 or 8 h. The protocol: (§1) FIG. 12 illustrates (A) Analysis of the caspase cascade induced by Apo2L/TRAIL. PSN-1 and DLD-1 cells were transfected with siRNAs against ppGalNAcT-14 or Fut-6, respectively, for 48 h. The cells were treated with Apo2L/TRAIL for 4 or 8 h, and cell lysates were analyzed by immunoblot with antibodies specific for caspase-8, Bid, caspase-9, caspase-3, or actin as a loading control. (B) PSN-1 cells were transfected with ppGalNAcT-14 siRNA as in A, treated with Apo2L/TRAIL for 4 h, and caspase-3/7 enzymatic activity in cell lysates was determined. (C) Analysis of the Apo2L/TRAIL DISC. PSN-1 cells were transfected with ppGalNAcT-14 siRNA as in A. FLAG-Apo2L/TRAIL ([…]) was added for 0-60 min, the cells were lysed, and subjected to an immunoprecipitation with an anti-FLAG antibody. DISC-associated FADD, caspase-8, DR4, and were detected by immunoblot. (D) PSN-1 cells were transfected, treated, and subjected to DISC immunoprecipitation as in C, and DISC-associated caspase-8 enzymatic activity was measured as previously described (Sharp et al., J. Biol. Chem., 280:19401 (2005).
(§2) siRNAs were purchased as double stranded RNA oligonucleotides and transfected into the respective cell lines at a final concentration of 25 nM for each siRNA. siRNA duplexes against a non-targeting sequence (Dharmacon) was used as a control. […]

Another assay deals with PSN-1 cells. The experiment in a line: Immunoblot analysis of the Apo2L/TRAIL-induced caspase cascade, PSN-1. In kind it is cell-based, human. Particulars: siRNA 48 h, Apo2L/TRAIL 4 or 8 h. The protocol:
as §1, §2
On the technique in general: A western blot detects proteins with antibodies after separation by electrophoresis.

Another assay relates to Colo205 tumor xenografts. Nature of the assay: Tumor xenograft study, Colo205. The format is in vivo, mice. As to conditions: Fut-6-positive Colo205; 60 mg/kg/day i.p. on days 0-4. On the procedure:
FIG. 10A-D illustrates differential expression of specific O-glycosylation enzymes in Apo2L/TRAIL-sensitive and -resistant cancer cell lines: (A) Cell viability was measured after incubation with varying doses of Apo2L/TRAIL. IC50 for each cell line was computed as the concentration of Apo2L/TRAIL that gives 50% loss of viability. Each cell viability experiment was repeated at least three times in presence of low (0.5%) and high (10%) fetal bovine serum. Black, grey, or open symbols depict cell lines that are highly sensitive, moderately sensitive, or resistant to Apo2L/TRAIL, respectively. (B) ppGalNAcT-14 mRNA expression levels (probe set 219271 at) in pancreatic and malignant melanoma cell lines. Cell lines are arranged by tissue type and sensitivity to Apo2L/TRAIL. […] Athymic nude mice carrying GalNAcT-3/Fut-6-positive (left panel) or GalNAcT-3/Fut-6-negative (right panel) tumors received vehicle or Apo2L/TRAIL (60 mg/kg/day i.p. on days 0-4) and tumor volume was monitored (mean ±SE, N=10 mice/group).
Monosaccharide composition of CHO-cell-derived DR5 was obtained after hydrolysis with 4 N TFA. […] Tumor measurements were collected by a digital caliper and tumor volumes calculated using the formula […] (A=length) (B=width)^2. […]

On to “Apo2L/TRAIL: nontagged soluble recombinant human Apo2L/TRAIL, prepared as described in Lawrence et al.”, for which the “Apo2L/TRAIL-induced caspase processing (caspase-8, Bid, caspase-9, caspase-3)” value with DLD-1 cells and in the assay with PSN-1 cells was “essentially complete processing of caspase-8” each time. In addition, the “effect on growth of established tumor xenografts” value in the assay on Colo205 tumor xenografts is “tumor regression followed by a greatly delayed tumor progression”.

For the origin of these results see patent publication US20080182277A1, “Assays and methods using biomarkers” (Genentech, Inc., priority 2005, published 2008).
